# Results reported in patent US10765114B2, “4-amino-6-(pyridyl and 2-substitutedphenyl)-picolinates and 6-amino-2-(pyridyl and 2-substitutedphenyl)-pyrimidine-4-carboxylates and their use as herbicides” (Dow AgroSciences LLC, priority 2013, dated 2020).
# Tested on: Key Broadleaf Weed and Crop Species
# Experiment: Post-Emergent Test II (Table 5)
# Format: in vivo
# Details: Abutilon theophrasti, post-emergence, 336 h, ABUTH: velvetleaf (Abutilon theophrasti), application rate 70 (kg ai/ha; footnote: g ai/ha), read-out: Visual Growth Reduction (%) 14 Days After Application ABUTH
# Summary of the method: (§1)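 Plants grown in a greenhouse (~15 h photoperiod, 23-29° C day) to first or second true leaf stage were sprayed post-emergence at 187 L/ha with compound in acetone/DMSO-based aqueous spray containing crop oil concentrate and surfactant, applied at a high rate plus ½× to 1/16× serial rates. Injury was scored visually 14 days later, 0-100% versus untreated plants.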
row,Structure (SMILES),pest or weed control at 70 g/ha [%]
1,COC(=O)c1nc(-c2ccc(Cl)c(F)c2C)nc(N)c1OC [Compound 63],0 to 29

# Same assay, conditions: Abutilon theophrasti, post-emergence, 336 h, ABUTH: velvetleaf (Abutilon theophrasti), application rate 140 (kg ai/ha; footnote: g ai/ha), read-out: Visual Growth Reduction (%) 14 Days After Application ABUTH
row,Structure (SMILES),pest or weed control at 140 g/ha [%]
1,COC(=O)c1nc(-c2ccc(Cl)c(F)c2C)nc(N)c1OC [Compound 63],0 to 29

# Same assay, conditions: Amaranthus retroflexus, post-emergence, 336 h, AMARE: redroot pigweed (Amaranthus retroflexus), application rate 70 (kg ai/ha; footnote: g ai/ha), read-out: Visual Growth Reduction (%) 14 Days After Application AMARE
row,Structure (SMILES),pest or weed control at 70 g/ha [%]
1,COC(=O)c1nc(-c2ccc(Cl)c(F)c2C)nc(N)c1OC [Compound 63],85 to 94

# Same assay, conditions: Amaranthus retroflexus, post-emergence, 336 h, AMARE: redroot pigweed (Amaranthus retroflexus), application rate 140 (kg ai/ha; footnote: g ai/ha), read-out: Visual Growth Reduction (%) 14 Days After Application AMARE
row,Structure (SMILES),pest or weed control at 140 g/ha [%]
1,COC(=O)c1nc(-c2ccc(Cl)c(F)c2C)nc(N)c1OC [Compound 63],85 to 94

# Same assay, conditions: Brassica napus, post-emergence, 336 h, BRSSS: oilseed rape, canola (Brassica napus), application rate 70 (kg ai/ha; footnote: g ai/ha), read-out: Visual Growth Reduction (%) 14 Days After Application BRSSS
row,Structure (SMILES),pest or weed control at 70 g/ha [%]
1,COC(=O)c1nc(-c2ccc(Cl)c(F)c2C)nc(N)c1OC [Compound 63],30 to 44

# Same assay, conditions: Brassica napus, post-emergence, 336 h, BRSSS: oilseed rape, canola (Brassica napus), application rate 140 (kg ai/ha; footnote: g ai/ha), read-out: Visual Growth Reduction (%) 14 Days After Application BRSSS
row,Structure (SMILES),pest or weed control at 140 g/ha [%]
1,COC(=O)c1nc(-c2ccc(Cl)c(F)c2C)nc(N)c1OC [Compound 63],45 to 59

# Same assay, conditions: Chenopodium album, post-emergence, 336 h, CHEAL: lambsquarters (Chenopodium album), application rate 70 (kg ai/ha; footnote: g ai/ha), read-out: Visual Growth Reduction (%) 14 Days After Application CHEAL
row,Structure (SMILES),pest or weed control at 70 g/ha [%]
1,COC(=O)c1nc(-c2ccc(Cl)c(F)c2C)nc(N)c1OC [Compound 63],85 to 94

# Same assay, conditions: Chenopodium album, post-emergence, 336 h, CHEAL: lambsquarters (Chenopodium album), application rate 140 (kg ai/ha; footnote: g ai/ha), read-out: Visual Growth Reduction (%) 14 Days After Application CHEAL
row,Structure (SMILES),pest or weed control at 140 g/ha [%]
1,COC(=O)c1nc(-c2ccc(Cl)c(F)c2C)nc(N)c1OC [Compound 63],85 to 94

# Same assay, conditions: Euphorbia heterophylla, post-emergence, 336 h, EPHHL: wild poinsettia (Euphorbia heterophylla), application rate 70 (kg ai/ha; footnote: g ai/ha), read-out: Visual Growth Reduction (%) 14 Days After Application EPHHL
row,Structure (SMILES),pest or weed control at 70 g/ha [%]
1,COC(=O)c1nc(-c2ccc(Cl)c(F)c2C)nc(N)c1OC [Compound 63],0 to 29

# Same assay, conditions: Euphorbia heterophylla, post-emergence, 336 h, EPHHL: wild poinsettia (Euphorbia heterophylla), application rate 140 (kg ai/ha; footnote: g ai/ha), read-out: Visual Growth Reduction (%) 14 Days After Application EPHHL
row,Structure (SMILES),pest or weed control at 140 g/ha [%]
1,COC(=O)c1nc(-c2ccc(Cl)c(F)c2C)nc(N)c1OC [Compound 63],0 to 29

# Same assay, conditions: Helianthus annuus, post-emergence, 336 h, HELAN: sunflower (Helianthus annuus), application rate 70 (kg ai/ha; footnote: g ai/ha), read-out: Visual Growth Reduction (%) 14 Days After Application HELAN
row,Structure (SMILES),pest or weed control at 70 g/ha [%]
1,COC(=O)c1nc(-c2ccc(Cl)c(F)c2C)nc(N)c1OC [Compound 63],75 to 84

# Same assay, conditions: Helianthus annuus, post-emergence, 336 h, HELAN: sunflower (Helianthus annuus), application rate 140 (kg ai/ha; footnote: g ai/ha), read-out: Visual Growth Reduction (%) 14 Days After Application HELAN
row,Structure (SMILES),pest or weed control at 140 g/ha [%]
1,COC(=O)c1nc(-c2ccc(Cl)c(F)c2C)nc(N)c1OC [Compound 63],75 to 84

# Same assay, conditions: Viola tricolor, post-emergence, 336 h, VIOTR: wild pansy (Viola tricolor), application rate 70 (kg ai/ha; footnote: g ai/ha), read-out: Visual Growth Reduction (%) 14 Days After Application VIOTR
row,Structure (SMILES),pest or weed control at 70 g/ha [%]
1,COC(=O)c1nc(-c2ccc(Cl)c(F)c2C)nc(N)c1OC [Compound 63],0 to 29

# Same assay, conditions: Viola tricolor, post-emergence, 336 h, VIOTR: wild pansy (Viola tricolor), application rate 140 (kg ai/ha; footnote: g ai/ha), read-out: Visual Growth Reduction (%) 14 Days After Application VIOTR
row,Structure (SMILES),pest or weed control at 140 g/ha [%]
1,COC(=O)c1nc(-c2ccc(Cl)c(F)c2C)nc(N)c1OC [Compound 63],0 to 29

# Tested on: Key Grass and Sedge Weeds as well as Grass Crops
# Experiment: Post-Emergent Test II (Table 6)
# Format: in vivo
# Details: post-emergence, 336 h, CYPSS, 70 g ai/ha, 14 days after application, read-out: Visual Growth Reduction (%) 14 Days After Application CYPSS
# Summary of the method: as §1
row,Structure (SMILES),pest or weed control at 70 g/ha [%]
1,COC(=O)c1nc(-c2ccc(Cl)c(F)c2C)nc(N)c1OC [Compound 63],0 to 29

# Same assay, conditions: post-emergence, 336 h, CYPSS, 140 g ai/ha, 14 days after application, read-out: Visual Growth Reduction (%) 14 Days After Application CYPSS
row,Structure (SMILES),pest or weed control at 140 g/ha [%]
1,COC(=O)c1nc(-c2ccc(Cl)c(F)c2C)nc(N)c1OC [Compound 63],0 to 29

# Same assay, conditions: post-emergence, 336 h, DIGSA: crabgrass (Digitaria sanguinalis), 70 g ai/ha, 14 days after application, read-out: Visual Growth Reduction (%) 14 Days After Application DIGSA
row,Structure (SMILES),pest or weed control at 70 g/ha [%]
1,COC(=O)c1nc(-c2ccc(Cl)c(F)c2C)nc(N)c1OC [Compound 63],0 to 29

# Same assay, conditions: post-emergence, 336 h, DIGSA: crabgrass (Digitaria sanguinalis), 140 g ai/ha, 14 days after application, read-out: Visual Growth Reduction (%) 14 Days After Application DIGSA
row,Structure (SMILES),pest or weed control at 140 g/ha [%]
1,COC(=O)c1nc(-c2ccc(Cl)c(F)c2C)nc(N)c1OC [Compound 63],0 to 29

# Same assay, conditions: post-emergence, 336 h, ECHSS, 70 g ai/ha, 14 days after application, read-out: Visual Growth Reduction (%) 14 Days After Application ECHSS
row,Structure (SMILES),pest or weed control at 70 g/ha [%]
1,COC(=O)c1nc(-c2ccc(Cl)c(F)c2C)nc(N)c1OC [Compound 63],0 to 29

# Same assay, conditions: post-emergence, 336 h, ECHSS, 140 g ai/ha, 14 days after application, read-out: Visual Growth Reduction (%) 14 Days After Application ECHSS
row,Structure (SMILES),pest or weed control at 140 g/ha [%]
1,COC(=O)c1nc(-c2ccc(Cl)c(F)c2C)nc(N)c1OC [Compound 63],0 to 29

# Same assay, conditions: post-emergence, 336 h, ORYSS (crop), 70 g ai/ha, 14 days after application, read-out: Visual Growth Reduction (%) 14 Days After Application ORYSS
row,Structure (SMILES),pest or weed control at 70 g/ha [%]
1,COC(=O)c1nc(-c2ccc(Cl)c(F)c2C)nc(N)c1OC [Compound 63],0 to 29

# Same assay, conditions: post-emergence, 336 h, ORYSS (crop), 140 g ai/ha, 14 days after application, read-out: Visual Growth Reduction (%) 14 Days After Application ORYSS
row,Structure (SMILES),pest or weed control at 140 g/ha [%]
1,COC(=O)c1nc(-c2ccc(Cl)c(F)c2C)nc(N)c1OC [Compound 63],0 to 29

# Same assay, conditions: post-emergence, 336 h, SETFA: giant foxtail (Setaria faberi), 70 g ai/ha, 14 days after application, read-out: Visual Growth Reduction (%) 14 Days After Application SETFA
row,Structure (SMILES),pest or weed control at 70 g/ha [%]
1,COC(=O)c1nc(-c2ccc(Cl)c(F)c2C)nc(N)c1OC [Compound 63],0 to 29

# Same assay, conditions: post-emergence, 336 h, SETFA: giant foxtail (Setaria faberi), 140 g ai/ha, 14 days after application, read-out: Visual Growth Reduction (%) 14 Days After Application SETFA
row,Structure (SMILES),pest or weed control at 140 g/ha [%]
1,COC(=O)c1nc(-c2ccc(Cl)c(F)c2C)nc(N)c1OC [Compound 63],0 to 29

# Same assay, conditions: post-emergence, 336 h, SORVU: grain sorghum (Sorghum vulgare), 70 g ai/ha, 14 days after application, read-out: Visual Growth Reduction (%) 14 Days After Application SORVU
row,Structure (SMILES),pest or weed control at 70 g/ha [%]
1,COC(=O)c1nc(-c2ccc(Cl)c(F)c2C)nc(N)c1OC [Compound 63],0 to 29

# Same assay, conditions: post-emergence, 336 h, SORVU: grain sorghum (Sorghum vulgare), 140 g ai/ha, 14 days after application, read-out: Visual Growth Reduction (%) 14 Days After Application SORVU
row,Structure (SMILES),pest or weed control at 140 g/ha [%]
1,COC(=O)c1nc(-c2ccc(Cl)c(F)c2C)nc(N)c1OC [Compound 63],0 to 29

# Same assay, conditions: post-emergence, 336 h, TRZSS (crop), 70 g ai/ha, 14 days after application, read-out: Visual Growth Reduction (%) 14 Days After Application TRZSS
row,Structure (SMILES),pest or weed control at 70 g/ha [%]
1,COC(=O)c1nc(-c2ccc(Cl)c(F)c2C)nc(N)c1OC [Compound 63],0 to 29

# Same assay, conditions: post-emergence, 336 h, TRZSS (crop), 140 g ai/ha, 14 days after application, read-out: Visual Growth Reduction (%) 14 Days After Application TRZSS
row,Structure (SMILES),pest or weed control at 140 g/ha [%]
1,COC(=O)c1nc(-c2ccc(Cl)c(F)c2C)nc(N)c1OC [Compound 63],0 to 29

# Same assay, conditions: post-emergence, 336 h, ZEAMX: maize, corn (Zea mays), 70 g ai/ha, 14 days after application, read-out: Visual Growth Reduction (%) 14 Days After Application ZEAMX
row,Structure (SMILES),pest or weed control at 70 g/ha [%]
1,COC(=O)c1nc(-c2ccc(Cl)c(F)c2C)nc(N)c1OC [Compound 63],0 to 29

# Same assay, conditions: post-emergence, 336 h, ZEAMX: maize, corn (Zea mays), 140 g ai/ha, 14 days after application, read-out: Visual Growth Reduction (%) 14 Days After Application ZEAMX
row,Structure (SMILES),pest or weed control at 140 g/ha [%]
1,COC(=O)c1nc(-c2ccc(Cl)c(F)c2C)nc(N)c1OC [Compound 63],0 to 29
